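How tested: cells in 96-well plates exposed to compound for 48 hours at five concentrations. At the TGI there is no net growth.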
Legend:
Assay in all cases: NCI-60 cell line screen, 48 h
[1] = tested on: A498 renal
[2] = tested on: CAKI-1 renal
[3] = tested on: CCRF-CEM leukemia
[4] = tested on: COLO 205 colon
[5] = tested on: DU-145 prostate
[6] = tested on: HCT-116 colon
[7] = tested on: HCT-15 colon
[8] = tested on: HL-60(TB) leukemia
[9] = tested on: HOP-62 NSCLC
[10] = tested on: HOP-92 NSCLC
[11] = tested on: HS 578T breast
[12] = tested on: HT29 colon
[13] = tested on: IGROV1 ovarian
[14] = tested on: KM12 colon
[15] = tested on: M14 melanoma
[16] = tested on: MALME-3M melanoma
[17] = tested on: MDA-MB-231 breast
[18] = tested on: MDA-MB-435
[19] = tested on: MDA-N
[20] = tested on: MOLT-4 leukemia
[21] = tested on: NCI-H23 lung
[22] = tested on: NCI-H460 lung
[23] = tested on: NCI-H522 lung
[24] = tested on: NCI/ADR-RES ovarian
[25] = tested on: OVCAR-3 ovarian
[26] = tested on: OVCAR-8 ovarian
[27] = tested on: PC-3 prostate
[28] = tested on: RPMI-8226 leukemia
[29] = tested on: SF-295 CNS
[30] = tested on: SK-MEL-2 melanoma
[31] = tested on: SK-MEL-28 melanoma
[32] = tested on: SK-MEL-5 melanoma
[33] = tested on: SK-OV-3 ovarian
[34] = tested on: SN12C renal
[35] = tested on: SNB-75 CNS
[36] = tested on: SR leukemia
[37] = tested on: T-47D breast
[38] = tested on: U251 CNS
[39] = tested on: UACC-62 melanoma
[40] = tested on: 786-0 renal
[41] = tested on: A549 NSCLC
[42] = tested on: ACHN renal
[43] = tested on: EKVX NSCLC
[44] = tested on: HCC-2998 colon
[45] = tested on: LOX IMVI melanoma
[46] = tested on: MCF7 breast
[47] = tested on: NCI-H226 lung
[48] = tested on: OVCAR-4 ovarian
[49] = tested on: OVCAR-5 ovarian
[50] = tested on: RXF 393 renal
[51] = tested on: SF-268 CNS
[52] = tested on: SNB-19 CNS
[53] = tested on: SW-620 colon
[54] = tested on: TK-10 renal
[55] = tested on: UACC-257 melanoma
[56] = tested on: UO-31 renal
[57] = tested on: SF-539 CNS
[58] = tested on: K-562 leukemia

S=C(/C=C1\SC(=Nc2ccccc2)C(=Nc2ccccc2)N1c1ccccc1)Nc1ccccc1
TGI [1]: > 100 µM
TGI [2]: > 100 µM
TGI [3]: > 100 µM
TGI [4]: > 100 µM
TGI [5]: > 100 µM
TGI [6]: > 100 µM
TGI [7]: > 100 µM
TGI [8]: > 100 µM
TGI [9]: > 100 µM
TGI [10]: > 100 µM
TGI [11]: > 100 µM
TGI [12]: > 100 µM
TGI [13]: > 100 µM
TGI [14]: > 100 µM
TGI [15]: > 100 µM
TGI [16]: > 100 µM
TGI [17]: > 100 µM
TGI [18]: > 100 µM
TGI [19]: > 100 µM
TGI [20]: > 100 µM
TGI [21]: > 100 µM
TGI [22]: > 100 µM
TGI [23]: > 100 µM
TGI [24]: > 100 µM
TGI [25]: > 100 µM
TGI [26]: > 100 µM
TGI [27]: > 100 µM
TGI [28]: > 100 µM
TGI [29]: > 100 µM
TGI [30]: > 100 µM
TGI [31]: > 100 µM
TGI [32]: > 100 µM
TGI [33]: > 100 µM
TGI [34]: > 100 µM
TGI [35]: > 100 µM
TGI [36]: > 100 µM
TGI [37]: > 100 µM
TGI [38]: > 100 µM
TGI [39]: > 100 µM

COP(C)(=O)C1=CCN(C(=O)OCC[Si](C)(C)C)CC1 (stereo not given)
TGI [40]: > 100 µM
TGI [1]: > 100 µM
TGI [41]: > 100 µM
TGI [42]: > 100 µM
TGI [2]: > 100 µM
TGI [3]: > 100 µM
TGI [4]: > 100 µM
TGI [5]: > 100 µM
TGI [43]: > 100 µM
TGI [44]: > 100 µM
TGI [7]: > 100 µM
TGI [9]: > 100 µM
TGI [10]: > 100 µM
TGI [11]: > 100 µM
TGI [12]: > 100 µM
TGI [13]: > 100 µM
TGI [14]: > 100 µM
TGI [45]: > 100 µM
TGI [15]: > 100 µM
TGI [16]: > 100 µM
TGI [46]: > 100 µM
TGI [17]: > 100 µM
TGI [18]: > 100 µM
TGI [19]: > 100 µM
TGI [47]: > 100 µM
TGI [21]: > 100 µM
TGI [22]: > 100 µM
TGI [23]: > 100 µM
TGI [24]: > 100 µM
TGI [25]: > 100 µM
TGI [48]: > 100 µM
TGI [49]: > 100 µM
TGI [26]: > 100 µM
TGI [27]: > 100 µM
TGI [28]: > 100 µM
TGI [50]: > 100 µM
TGI [51]: > 100 µM
TGI [29]: > 100 µM
TGI [30]: > 100 µM
TGI [31]: > 100 µM
TGI [32]: > 100 µM
TGI [33]: > 100 µM
TGI [52]: > 100 µM
TGI [35]: > 100 µM
TGI [53]: > 100 µM
TGI [37]: > 100 µM
TGI [54]: > 100 µM
TGI [38]: > 100 µM
TGI [55]: > 100 µM
TGI [39]: > 100 µM
TGI [56]: > 100 µM

c1ccc(-c2cc(-c3cccs3)c(-c3cccs3)s2)cc1
TGI [40]: > 100 µM
TGI [1]: > 100 µM
TGI [42]: > 100 µM
TGI [2]: > 100 µM
TGI [3]: 57.9 µM
TGI [4]: > 100 µM
TGI [5]: > 100 µM
TGI [43]: > 100 µM
TGI [44]: 67.8 µM
TGI [6]: > 100 µM
TGI [7]: 70.1 µM
TGI [8]: 88.5 µM
TGI [9]: > 100 µM
TGI [10]: > 100 µM
TGI [11]: > 100 µM
TGI [12]: > 100 µM
TGI [13]: > 100 µM
TGI [14]: 32.9 µM
TGI [15]: 54.5 µM
TGI [46]: 41 µM
TGI [17]: > 100 µM
TGI [18]: 75.5 µM
TGI [19]: > 100 µM
TGI [20]: 63.1 µM
TGI [47]: > 100 µM
TGI [21]: 60.2 µM
TGI [22]: > 100 µM
TGI [23]: 64.8 µM
TGI [24]: > 100 µM
TGI [25]: > 100 µM
TGI [48]: 62.6 µM
TGI [49]: > 100 µM
TGI [26]: > 100 µM
TGI [28]: 79 µM
TGI [50]: 47.3 µM
TGI [51]: > 100 µM
TGI [29]: > 100 µM
TGI [57]: > 100 µM
TGI [32]: > 100 µM
TGI [33]: > 100 µM
TGI [34]: > 100 µM
TGI [35]: > 100 µM
TGI [36]: 52.3 µM
TGI [53]: > 100 µM
TGI [37]: 58.4 µM
TGI [54]: > 100 µM
TGI [38]: > 100 µM
TGI [55]: > 100 µM
TGI [39]: > 100 µM
TGI [56]: 72.3 µM

O=C(/C=C/c1ccsc1)c1ccc(Cl)cc1
TGI [40]: > 100 µM
TGI [1]: > 100 µM
TGI [41]: > 100 µM
TGI [42]: > 100 µM
TGI [2]: > 100 µM
TGI [3]: 53.3 µM
TGI [4]: > 100 µM
TGI [5]: > 100 µM
TGI [43]: > 100 µM
TGI [44]: > 100 µM
TGI [6]: > 100 µM
TGI [7]: > 100 µM
TGI [8]: 49.8 µM
TGI [9]: > 100 µM
TGI [11]: > 100 µM
TGI [12]: > 100 µM
TGI [13]: > 100 µM
TGI [58]: 95.7 µM
TGI [14]: > 100 µM
TGI [45]: 47.8 µM
TGI [15]: > 100 µM
TGI [16]: 95.3 µM
TGI [46]: > 100 µM
TGI [17]: > 100 µM
TGI [18]: > 100 µM
TGI [19]: > 100 µM
TGI [20]: 43.7 µM
TGI [47]: > 100 µM
TGI [21]: > 100 µM
TGI [22]: > 100 µM
TGI [24]: > 100 µM
TGI [48]: > 100 µM
TGI [49]: > 100 µM
TGI [26]: > 100 µM
TGI [27]: > 100 µM
TGI [28]: 64.8 µM
TGI [51]: > 100 µM
TGI [29]: > 100 µM
TGI [57]: > 100 µM
TGI [30]: > 100 µM
TGI [31]: > 100 µM
TGI [32]: > 100 µM
TGI [33]: > 100 µM
TGI [34]: > 100 µM
TGI [52]: > 100 µM
TGI [35]: > 100 µM
TGI [36]: 43.7 µM
TGI [53]: > 100 µM
TGI [37]: > 100 µM
TGI [54]: > 100 µM
TGI [38]: > 100 µM
TGI [55]: > 100 µM
TGI [39]: > 100 µM
TGI [56]: > 100 µM

CC(=O)CC1(OC(=O)C2C(C=C(C)C)C2(C)C)C(=O)Nc2ccccc21 (stereo not given)
TGI [40]: > 100 µM
TGI [1]: > 100 µM
TGI [41]: > 100 µM
TGI [42]: > 100 µM
TGI [2]: > 100 µM
TGI [3]: > 100 µM
TGI [4]: > 100 µM
TGI [5]: > 100 µM
TGI [43]: > 100 µM
TGI [44]: > 100 µM
TGI [6]: > 100 µM
TGI [7]: > 100 µM
TGI [8]: > 100 µM
TGI [9]: > 100 µM
TGI [11]: > 100 µM
TGI [12]: > 100 µM
TGI [13]: > 100 µM
TGI [58]: > 100 µM
TGI [14]: > 100 µM
TGI [45]: > 100 µM
TGI [15]: > 100 µM
TGI [16]: > 100 µM
TGI [17]: > 100 µM
TGI [18]: > 100 µM
TGI [19]: > 100 µM
TGI [20]: > 100 µM
TGI [47]: > 100 µM
TGI [21]: > 100 µM
TGI [22]: > 100 µM
TGI [23]: > 100 µM
TGI [24]: > 100 µM
TGI [25]: > 100 µM
TGI [48]: > 100 µM
TGI [49]: > 100 µM
TGI [26]: > 100 µM
TGI [27]: > 100 µM
TGI [28]: > 100 µM
TGI [50]: > 100 µM
TGI [51]: > 100 µM
TGI [29]: > 100 µM
TGI [57]: > 100 µM
TGI [30]: > 100 µM
TGI [31]: > 100 µM
TGI [32]: > 100 µM
TGI [33]: > 100 µM
TGI [34]: > 100 µM
TGI [52]: > 100 µM
TGI [35]: > 100 µM
TGI [36]: > 100 µM
TGI [53]: > 100 µM
TGI [37]: > 100 µM
TGI [54]: > 100 µM
TGI [38]: > 100 µM
TGI [55]: > 100 µM
TGI [39]: > 100 µM
TGI [56]: > 100 µM
